Results reported in patent US6967102B1, “Nitric oxide manipulation of muscle satellite cell activation” (University of Manitoba, priority 1999, dated 2005).
“Also recorded” adds a separate entry of the source.

What was measured:
dystrophic muscle = test: Central nucleation index (CNI) in LTA and diaphragm of treated mdx mice; assay type: in vivo; conditions: mdx mice treated from 4–8 weeks of age; for CNI (central nucleation index) in DIA: diaphragm; for CNI (central nucleation index) in LTA: left tibialis anterior
Source text: A study of 4 groups (n≈10/group) of mdx dystrophic mice treated with placebo, deflazacort, deflazacort plus L-NAME (a NOS inhibitor), or deflazacort plus L-arginine (a […]). Deflazacort was given by daily injection (ip) and L-NAME and L-arginine were given systemically in the drinking water.
When a normal peripherally nucleated myofiber degenerates, muscle precursor cells proliferate to varying extents (Grounds Md., McGeachie J K. (1989). Exp. Cell Res 180:429–439) and fuse to form centrally nucleated myotubes. These myotubes grow, or even hypertrophy compared to the original distribution of fiber size in that muscle, and span the injured area, (Anderson J E, Ovalle W K, Bressler B H. (1987). Anat. Rec. 219:243–257; Anderson J E, Bressler B H, Ovalle W K. (1988). J. Muscle Res. Cell Motil. 9:499–515; Ontell M, Feng K C, Klueber K, Dunn R F, Taylor F. (1984). Anat. Rec. 208:159 174) but remain centrally nucleated; thus the central nucleation index (CNI) is a useful measure of accumulated damage and repair. (Karpati G, Carpenter S. (1988). Muscle Nerve. 11:795–803). The CNI is a measurement well known in the art (see Karpati and Carpenter. 1988. Muscle Nerve. 11:795–803 and Anderson et al. 1996. Muscle Nerve. 19:1576–1585).
CNI is the proportion of all fibers in a section or a muscle which show a centrally-located nucleus (often given as a percentage). Since muscular dystrophy causes ongoing damage of muscle fibers, the successful repair of those fibers is marked by centrally-nucleated fibers which accumulate as a proportion of total fibers. Unsuccessful repair can be viewed as a loss of fibers in a section of a whole muscle; this too can produce a change in the ratio of centrally nucleated to total number of fibers (expressed as a percentage).
In this experiment, muscle tissues are collected from the treated animals. LTA and diaphragm muscles were sectioned, and counts of fibers with central nuclei and fibers with peripheral nuclei were performed. The largest diameter of the muscle section in each of the two sections of each muscle was used for counting, for 10 mice per group (2 muscles per mouse).
This is similar for the tibialis anterior muscle (LTA) and diaphragm at the age shown in the graph (which is 8 weeks of age) and is reliably used to monitor the progressive effect of dystrophic fiber injury on a muscle over time as the disease progresses. CNI will increase with age in the mdx mice (until the plateau discussed above). Mice are treated from 4–8 weeks of age with placebo, Deflazacort, D+L-NAME or D+L-Arginine.

muscle precursor cells = conditions: deflazacort treatment on mdx mice; cited from earlier work
muscle fibers = test: Marcaine / ethidium bromide staining and hypercontraction of isolated muscle fibers; assay type: cell-based, C57 mice
Source text: (§1) Flexor digitorum brevis (FDB) muscles from normal C57 mice were dissected from the foot, and connective tissue, vessels and nerves were cleaned off the muscle. Following a 3 hr collagenase digestion (0.2% in DMEM), and viewed on a dissecting microscope, the muscle was separated into three bundles and the overlying connective tissue was peeled off the bundles using sharp forceps. The individual fibers were then teased off the remnant tendon and into smaller bundles. Bundles were gently triturated to separate single fibers using a wide mouth glass pipette with a polished end. The fibers were plated onto vitrogen-coated 35 mm dishes and grown in 1.5 ml of DMEM+10% Horse Serum (HS)+1% antimyotics+0.1% gentamycin.
Marcaine, an anaesthetic, was previously used to kill live fibers by adding it to a dish for 20–30 minutes (Cornelison, D. D. W., and Wold, B. J. (1997). Dev. Biol. 191:270–283) but the exact time of fiber death was never identified. Ethidium bromide (EtBr) is a fluorescent chemical which intercalates into the DNA of dead cells but is not taken up into live fibers. Media was mostly decanted from freshly plated fibers and the fibers were located using a microscope. 2–3 drops of either EtBr (2.5 μg/ml) in DMEM or Marcaine (0.05%)+EtBr (2.5 μg/ml) in DMEM were then added to the dish under continuous observation. Fiber hypercontraction was observed using a phase lens and the time course of EtBr nuclear staining was observed under UV light using a red filter. Photographs (ASA400 Fuji Colour Film) were taken to record staining of live, fixed, EtBr and Marcaine treated fibers and nuclei.

satellite cells [1] = test: Cell yield time course 0–30 min after crush injury of right tibialis anterior, normal mice; assay type: in vivo, normal mice (C57BL/6); conditions: L-Arg 225 mg/kg ip 30 min before crush; 0–30 min
[2] = Muscle weight to body weight (edema) and haemorrhage after crush injury, normal mice; assay type: in vivo, normal mice (C57BL/6); conditions: ip treatment 30 min before crush; 0–30 min after injury
satellite cells [3] = test: Isolated single muscle fiber culture, BrdU incorporation by satellite cells (activation); assay type: cell-based, C57 mice
Source text: as §1
Live fibers exclude Ethidium bromide (EtBr), but 5 minutes after adding a myotoxin called marcaine (Bischoff R. (1990b). Development 109:943–952) to the medium, nuclei in fibers (and not in satellite cells) are fluorescent for EtBr. Hypercontraction occurs another 5–10 min later. Satellite cells exclude EtBr but take up an indicator of live cells, fluoresceine diacetate (FDA). Without this characterization, observations on satellite cells in a culture could include artefacts from membrane damage that initiates activation differently than any treatment under study. Satellite cells on our intact fibers were also quiescent after isolation. […] This conclusion is critical to any studies that propose to examine activation signals and their regulation.
Experimental Protocol: Fibers are isolated from flexor digitorum brevis (FDB) muscles on the plantar foot of 3 mice, then digested in collagenase (0.2% for 3 hr) and separated under a stereo microscope into small bundles (Yablonka-Reuveni, Z. and Rivera AJ. (1994). Dev. Biol. 164:588–603). […]
Fibers are incubated in 20% serum replacement medium (CSR; Yablonka-Reuveni, Z, and Rivera A J. (1994). Dev. Biol. 164:588–603). […] Activation is measured by counting labelled satellite cells per fiber (150–250 fibers/dish). […]

[4] = Marcaine (0.05%)+EtBr (2.5 μg/ml) in DMEM

## D+L-Arginine
Dystrophic muscle
  CNI (central nucleation index) in DIA: decrease the CNI of DIA from the level seen with D+L-NAME
  CNI (central nucleation index) in LTA: increase in LTA CNI from deflazacort alone; also recorded: still significantly lower than placebo treatment

## CC(=O)OCC(=O)[C@@]12N=C(C)O[C@@H]1C[C@H]1[C@@H]3CCC4=CC(=O)C=C[C@]4(C)[C@H]3[C@@H](O)C[C@@]12C [deflazacort]
Muscle precursor cells
  increase in precursor cell proliferation and formation of new muscle fibers: 1.5–2 fold
Dystrophic muscle
  CNI (central nucleation index) in DIA: significantly lower CNI after deflazacort
  CNI (central nucleation index) in LTA: 0.4

## CCCCN1CCCCC1C(=O)Nc1c(C)cccc1C (stereo not drawn) [Marcaine]
Muscle fibers; [4]
  time to EtBr staining of nuclei of live fibers after Marcaine: 60 to 90 s
  time to fiber hypercontraction: 5 to 10 min
Muscle fibers; marcaine added to the medium
  further time until hypercontraction after nuclei fluoresce: 5 to 10 min
  time after adding marcaine at which nuclei in fibers are fluorescent for EtBr: 5 min

## N=C(N)NCCC[C@H](N)C(=O)O [L-Arg, L-arginine]
Satellite cells [1]
  RSOL cell counts: unchanged
  RTA cell yield time course: rose sharply at 5 min., and also stayed high
[2]
  muscle weight profile (RTA relative to LTA; muscle weight as proportion of body weight): little or no change in muscle weight profile
Satellite cells [3]; L-Arginine 50–1000 nM, initial results
  concentration showing maximal activation: 500 nM
Satellite cells [3]; single normal fibers, L-arginine at various concentrations, 48 hr
  satellite cell activation (marked by DNA synthesis): stimulates activation in a dose-dependent manner
Satellite cells [3]; single normal fibers, L-arginine, 48 hr
  satellite cell migration away from fibers: stimulates satellite cell migration away from fibers
